Test results as given in patent US20240343704A1, “HALO-SUBSTITUTED AMINO PYRIDINE COMPOUNDS AS INHIBITORS OF THE HAEMATOPOIETIC PROGENITOR KINASE 1 (HPK1)” (priority 2021, published 2024).
Structures can show the parent of a compound that is named as a salt. Where two headings read alike, the source gives them in different places.

Assays:
[1] = target: T1, Recombinant (1-346) HPK1 (h) (Homo sapiens, UniProt Q92918); assay: HPK1 Human STE Kinase Enzymatic Radiometric Assay; format: biochemical; conditions: read-out: HPK1 IC50 nM Range*
T1 construct: Recombinant (1-346) HPK1 (h) is incubated with 8 mM MOPS pH 7.0
T1 sequence (Q92918 1-346): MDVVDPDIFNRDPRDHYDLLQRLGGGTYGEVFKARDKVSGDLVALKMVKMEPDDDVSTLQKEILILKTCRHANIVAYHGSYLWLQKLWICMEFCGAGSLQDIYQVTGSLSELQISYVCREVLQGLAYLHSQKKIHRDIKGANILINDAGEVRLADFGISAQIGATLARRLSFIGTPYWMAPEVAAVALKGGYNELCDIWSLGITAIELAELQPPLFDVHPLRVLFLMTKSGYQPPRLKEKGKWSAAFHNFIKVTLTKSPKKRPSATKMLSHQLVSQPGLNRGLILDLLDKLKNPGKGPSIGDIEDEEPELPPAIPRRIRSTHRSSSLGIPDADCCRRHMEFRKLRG
Protocol: A stock solution of 10 mM of test compound is prepared in DMSO. The compound plate was prepared by 3-fold and 9-point serial dilutions. […] The reaction is initiated by The addition of the Mg/ATP mix. After incubation for 40 minutes at RT, the reaction is stopped by the addition of phosphoric acid to a concentration of 0.5%.

Lck (h) = Lck (h) (Homo sapiens, UniProt P06239); assay: Lck Human  Kinase Enzymatic Radiometric Assay; format: biochemical
Chain of Lck (h) (P06239 whole entry): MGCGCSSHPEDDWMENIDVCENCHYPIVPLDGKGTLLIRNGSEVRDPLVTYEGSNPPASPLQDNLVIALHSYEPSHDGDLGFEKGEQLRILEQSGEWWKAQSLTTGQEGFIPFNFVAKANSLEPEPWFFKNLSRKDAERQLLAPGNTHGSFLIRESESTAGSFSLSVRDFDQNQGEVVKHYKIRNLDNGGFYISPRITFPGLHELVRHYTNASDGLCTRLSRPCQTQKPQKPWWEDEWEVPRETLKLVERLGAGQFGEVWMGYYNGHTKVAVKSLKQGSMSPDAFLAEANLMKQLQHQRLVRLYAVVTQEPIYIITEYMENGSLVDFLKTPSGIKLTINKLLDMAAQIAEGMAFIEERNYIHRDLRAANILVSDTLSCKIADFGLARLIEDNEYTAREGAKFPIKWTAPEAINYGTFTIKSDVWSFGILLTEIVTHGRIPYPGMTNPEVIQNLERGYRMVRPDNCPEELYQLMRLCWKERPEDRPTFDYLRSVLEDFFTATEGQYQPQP
In short: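 Substrate 33P-incorporation measured by scintillation counting after spotting on P30 filtermat and phosphoric acid washes. Human Lck reacted 40 min at RT in 50 mM Tris pH 7.5 with 10 mM MgAcetate, [gamma-33P]-ATP, 250 uM Cdc2 peptide, 0.1 mM EGTA and 0.1 mM Na3VO4.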

Compound | IC50 [1] [nM] | IC50 (Lck (h); read-out: Lck IC50 nM Range*) [nM] | IC50 (Lck (h); read-out: Lck IC50 nM Range* (number printed instead of a class)) [nM]
CN1CCN(c2ccc(-c3cc(-c4cc5c(cc4F)C(=O)NCC5)c(N)nc3F)cc2F)CC1 [I-247, 6-(2-amino-6-fluoro-5-(3-fluoro-4-(4-methylpiperazin-1-yl)phenyl)pyridin-3-yl)-7-fluoro-3,4-dihydroisoquinolin-1(2H)-one] | 0.1 to 10 | > 1000 | –
Nc1nc(F)c(-c2ccc(C3CCN(CC(F)(F)F)CC3)cc2)cc1-c1cc2c(cc1F)C(=O)NCC2 [I-248, 6-(2-amino-6-fluoro-5-(4-(1-(2,2,2-trifluoroethyl)piperidin-4-yl)phenyl)pyridin-3-yl)-7-fluoro-3,4-dihydroisoquinolin-1(2H)-one] | 11 to 100 | > 1000 | –
CN1CCN(c2ccc(-c3cc(-c4cc5c(cc4F)C(=O)NCC5)c(N)nc3F)cc2C(F)(F)F)CC1 [I-249, 6-(2-amino-6-fluoro-5-(4-(4-methylpiperazin-1-yl)-3-(trifluoromethyl)phenyl)pyridin-3-yl)-7-fluoro-3,4-dihydroisoquinolin-1(2H)-one] | 0.1 to 10 | – | 381
C[C@@H]1CN(c2cc(F)c(-c3cc(-c4ccc5c(c4)CCNC5=O)c(N)nc3F)cc2[N+](=O)[O-])C[C@H](C)N1C [I-250, 6-(2-amino-6-fluoro-5-(2-fluoro-5-nitro-4-((3R,5S)-3,4,5-trimethylpiperazin-1-yl)phenyl)pyridin-3-yl)-3,4-dihydroisoquinolin-1(2H)-one formate] | 11 to 100 | > 1000 | –
COCCN1CCC(F)(c2ccc(-c3cc(-c4ccc5c(c4)CCNC5=O)c(N)nc3F)cc2)CC1 [I-251, 6-(2-amino-6-fluoro-5-(4-(4-fluoro-1-(2-methoxyethyl)piperidin-4-yl)phenyl)pyridin-3-yl)-3,4-dihydroisoquinolin-1(2H)-one] | 0.1 to 10 | > 1000 | –
CN1CCN(c2ccc(-c3cc(-c4cc5c(cc4F)C(=O)NCC5)c(N)nc3F)c(Cl)c2)CC1 [I-252, 6-(2-amino-5-(2-chloro-4-(4-methylpiperazin-1-yl)phenyl)-6-fluoropyridin-3-yl)-7-fluoro-3,4-dihydroisoquinolin-1(2H)-one] | 0.1 to 10 | > 1000 | –
Nc1nc(F)c(-c2ccc(C3CCN(CC(F)F)CC3)cc2)cc1-c1cc2c(cc1F)C(=O)NCC2 [I-256, 6-(2-amino-5-(4-(1-(2,2-difluoroethyl)piperidin-4-yl)phenyl)-6-fluoropyridin-3-yl)-7-fluoro-3,4-dihydroisoquinolin-1(2H)-one] | 0.1 to 10 | > 1000 | –
CC(C)N1CCC(Oc2ccc(-c3cc(-c4ccc5c(c4)CCNC5=O)c(N)nc3F)cc2C(F)(F)F)CC1 [I-261, 6-(2-amino-6-fluoro-5-(4-((1-isopropylpiperidin-4-yl)oxy)-3-(trifluoromethyl)phenyl)pyridin-3-yl)-3,4-dihydroisoquinolin-1(2H)-one] | 11 to 100 | > 1000 | –
COCCN1CCC(Oc2ccc(-c3cc(-c4ccc5c(c4)CCNC5=O)c(N)nc3F)cc2C(F)(F)F)CC1 [I-262, 6-(2-amino-6-fluoro-5-(4-((1-(2-methoxyethyl)piperidin-4-yl)oxy)-3-(trifluoromethyl)phenyl)pyridin-3-yl)-3,4-dihydroisoquinolin-1(2H)-one] | 0.1 to 10 | > 1000 | –
CC(C)N1CCN(c2ccc(-c3cc(-c4cc5c(cc4F)C(=O)NCC5)c(N)nc3F)cc2C(F)(F)F)CC1 [I-263, 6-(2-amino-6-fluoro-5-(4-(4-isopropylpiperazin-1-yl)-3-(trifluoromethyl)phenyl)pyridin-3-yl)-7-fluoro-3,4-dihydroisoquinolin-1(2H)-one] | 0.1 to 10 | > 1000 | –
COCCN1CCN(c2ccc(-c3cc(-c4cc5c(cc4F)C(=O)NCC5)c(N)nc3F)cc2C(F)(F)F)CC1 [I-264, 6-(2-amino-6-fluoro-5-(4-(4-(2-methoxyethyl)piperazin-1-yl)-3-(trifluoromethyl)phenyl)pyridin-3-yl)-7-fluoro-3,4-dihydroisoquinolin-1(2H)-one] | 0.1 to 10 | > 1000 | –
CC(C)N1CCC(Oc2ccc(-c3cc(-c4ccc5c(c4)CCNC5=O)c(N)nc3F)c(F)c2F)CC1 [I-270, 6-(2-amino-5-(2,3-difluoro-4-((1-isopropylpiperidin-4-yl)oxy)phenyl)-6-fluoropyridin-3-yl)-3,4-dihydroisoquinolin-1(2H)-one] | 11 to 100 | > 1000 | –
CC(C)N1CCC(Oc2cc(F)c(-c3cc(-c4ccc5c(c4)CCNC5=O)c(N)nc3F)cc2F)CC1 [I-271, 6-(2-amino-5-(2,5-difluoro-4-((1-isopropylpiperidin-4-yl)oxy)phenyl)-6-fluoropyridin-3-yl)-3,4-dihydroisoquinolin-1(2H)-one] | 11 to 100 | > 1000 | –
COc1cc(OC2CCN(C(C)C)CC2)ccc1-c1cc(-c2ccc3c(c2)CCNC3=O)c(N)nc1F [I-272, 6-(2-amino-6-fluoro-5-(4-((1-isopropylpiperidin-4-yl)oxy)-2-methoxyphenyl)pyridin-3-yl)-3,4-dihydroisoquinolin-1(2H)-one] | 0.1 to 10 | > 1000 | –

Second part, the compound after the results:

IC50 [1] [nM] | IC50 (Lck (h); read-out: Lck IC50 nM Range*) [nM] | IC50 (Lck (h); read-out: Lck IC50 nM Range* (number printed instead of a class)) [nM] | Compound
11 to 100 | > 1000 | – | CN1CCc2cc(-c3cc(-c4ccc5c(c4)CCNC5=O)c(N)nc3F)ccc21 [I-253, 6-(2-amino-6-fluoro-5-(1-methylindolin-5-yl)pyridin-3-yl)-3,4-dihydroisoquinolin-1(2H)-one]
11 to 100 | > 1000 | – | CN1CCc2cc(-c3cc(-c4ccc5c(c4)CCNC5=O)c(N)nc3F)ccc2C1 [I-254, 6-(2-amino-6-fluoro-5-(2-methyl-1,2,3,4-tetrahydroisoquinolin-6-yl)pyridin-3-yl)-3,4-dihydroisoquinolin-1(2H)-one]
0.1 to 10 | > 1000 | – | Nc1nc(F)c(-c2ccc3c(c2)CCNC3)cc1-c1ccc2c(c1)CCNC2=O [I-255, 6-(2-amino-6-fluoro-5-(1,2,3,4-tetrahydroisoquinolin-6-yl)pyridin-3-yl)-3,4-dihydroisoquinolin-1(2H)-one 2,2,2-trifluoroacetate]
11 to 100 | > 1000 | – | Nc1nc(F)c(-c2ccc(CN3CCOCC3)cc2)cc1-c1ccc2c(c1)CCNC2=O [I-257, 6-(2-amino-6-fluoro-5-(4-(morpholinomethyl)phenyl)pyridin-3-yl)-3,4-dihydroisoquinolin-1(2H)-one]
11 to 100 | > 1000 | – | CN1CCN(Cc2ccc(-c3cc(-c4ccc5c(c4)CCNC5=O)c(N)nc3F)cc2)CC1 [I-258, 6-(2-amino-6-fluoro-5-(4-((4-methylpiperazin-1-yl)methyl)phenyl)pyridin-3-yl)-3,4-dihydroisoquinolin-1(2H)-one]
11 to 100 | > 1000 | – | CN1CCN(C(=O)c2ccc(-c3cc(-c4ccc5c(c4)CCNC5=O)c(N)nc3F)cc2)CC1 [I-259, 6-(2-amino-6-fluoro-5-(4-(4-methylpiperazine-1-carbonyl)phenyl)pyridin-3-yl)-3,4-dihydroisoquinolin-1(2H)-one]
11 to 100 | > 1000 | – | CN1CCN(C2(c3ccc(-c4cc(-c5ccc6c(c5)CCNC6=O)c(N)nc4F)cc3)CC2)CC1 [I-260, 6-(2-amino-6-fluoro-5-(4-(1-(4-methylpiperazin-1-yl)cyclopropyl)phenyl)pyridin-3-yl)-3,4-dihydroisoquinolin-1(2H)-one]
11 to 100 | > 1000 | – | Nc1nc(F)c(-c2cccc(CN3CCNCC3)c2)cc1-c1ccc2c(c1)CCNC2=O [I-265, 6-(2-amino-6-fluoro-5-(3-(piperazin-1-ylmethyl)phenyl)pyridin-3-yl)-3,4-dihydroisoquinolin-1(2H)-one formate]
11 to 100 | > 1000 | – | COCCN1CCc2cc(-c3cc(-c4ccc5c(c4)CCNC5=O)c(N)nc3F)ccc2C1 [I-266, 6-(2-amino-6-fluoro-5-(2-(2-methoxyethyl)-1,2,3,4-tetrahydroisoquinolin-6-yl)pyridin-3-yl)-3,4-dihydroisoquinolin-1(2H)-one]
0.1 to 10 | > 1000 | – | CC(C)N1CCC(Oc2ccc(-c3cc(-c4ccc5c(c4)CCNC5=O)c(N)nc3F)cc2)CC1 [I-267, 6-(2-amino-6-fluoro-5-(4-((1-isopropylpiperidin-4-yl)oxy)phenyl)pyridin-3-yl)-3,4-dihydroisoquinolin-1(2H)-one]
0.1 to 10 | > 1000 | – | CC(C)N1CCC(Oc2ccc(-c3cc(-c4ccc5c(c4)CCNC5=O)c(N)nc3F)cc2F)CC1 [I-268, 6-(2-amino-6-fluoro-5-(3-fluoro-4-((1-isopropylpiperidin-4-yl)oxy)phenyl)pyridin-3-yl)-3,4-dihydroisoquinolin-1(2H)-one]
0.1 to 10 | > 1000 | – | COCCN1CCC(Oc2ccc(-c3cc(-c4ccc5c(c4)CCNC5=O)c(N)nc3F)cc2F)CC1 [I-269, 6-(2-amino-6-fluoro-5-(3-fluoro-4-((1-(2-methoxyethyl)piperidin-4-yl)oxy)phenyl)pyridin-3-yl)-3,4-dihydroisoquinolin-1(2H)-one]
